In ChEMBL document CHEMBL3044759, “Synthesis and Insecticidal Activity of Lignan Analogs. (1)” (1991) one finds LD50 and Activity data, which are given here for eight compounds.

The source made the active and inactive calls. The rule behind the calls is not given here.

The test system of the first test is Musca domestica. The experiment in a line: Insecticidal activity against Musca domestica (housefly) assessed as paralysis at 28 degC measured per fly after 24 hr. Type of test: functional.
Turning to `CCCCOc1ccc(OC)c([C@H]2OC[C@]3(O)[C@@H](Oc4c(OC)cccc4OC)OC[C@H]23)c1` (racemic), the LD50 was found to be 8 µg.

In the next test the test system is Musca domestica. Put plainly: Insecticidal activity against Musca domestica (housefly) assessed as paralysis at 28 degC measured after 24 hr at 10 ug topically. Type of test: functional, organism-based.
For the compound `COc1ccc(O)cc1[C@H]1OC[C@]2(O[Si](C)(C)C(C)(C)C)[C@@H](Oc3c(OC)cccc3OC)OC[C@H]12` (racemic), the outcome was inactive.

`COCCOc1ccc(OC)c([C@H]2OC[C@]3(O)[C@@H](Oc4c(OC)cccc4OC)OC[C@H]23)c1` (racemic): the result was Active.

Take `COc1ccc(OCc2ccc3c(c2)OCO3)cc1[C@H]1OC[C@]2(O)[C@@H](Oc3c(OC)cccc3OC)OC[C@H]12` (racemic): the outcome was inactive.

On to `COCCOc1ccc(OC)c([C@H]2OC[C@]3(O)[C@H](Oc4c(OC)cccc4OC)OC[C@H]23)c1` (racemic), for which the outcome was inactive.

In the case of `COc1ccc(O[Si](C)(C)C(C)(C)C)cc1[C@H]1OC[C@]2(O[Si](C)(C)C(C)(C)C)C(Oc3c(OC)cccc3OC)OC[C@H]12` (mixture of isomers), the result was inactive.

Consider `COc1ccc(O)cc1[C@H]1OC[C@]2(O)[C@H](Oc3c(OC)cccc3OC)OC[C@H]12` (racemic), for which the outcome was inactive.

Turning to `COCCOCCOc1ccc(OC)c([C@H]2OC[C@]3(O)[C@@H](Oc4c(OC)cccc4OC)OC[C@H]23)c1` (racemic), the outcome was Active.
